Measurements from publication PMC6743424, “Phenolic acid phenethylesters and their corresponding ketones: Inhibition of 5‐lipoxygenase and stability in human blood and HepaRG cells” (Pharmacology Research & Perspectives, 2019).

Target: T1, 5‐LO (Homo sapiens, UniProt P09917)
T1 sequence (P09917 1-674): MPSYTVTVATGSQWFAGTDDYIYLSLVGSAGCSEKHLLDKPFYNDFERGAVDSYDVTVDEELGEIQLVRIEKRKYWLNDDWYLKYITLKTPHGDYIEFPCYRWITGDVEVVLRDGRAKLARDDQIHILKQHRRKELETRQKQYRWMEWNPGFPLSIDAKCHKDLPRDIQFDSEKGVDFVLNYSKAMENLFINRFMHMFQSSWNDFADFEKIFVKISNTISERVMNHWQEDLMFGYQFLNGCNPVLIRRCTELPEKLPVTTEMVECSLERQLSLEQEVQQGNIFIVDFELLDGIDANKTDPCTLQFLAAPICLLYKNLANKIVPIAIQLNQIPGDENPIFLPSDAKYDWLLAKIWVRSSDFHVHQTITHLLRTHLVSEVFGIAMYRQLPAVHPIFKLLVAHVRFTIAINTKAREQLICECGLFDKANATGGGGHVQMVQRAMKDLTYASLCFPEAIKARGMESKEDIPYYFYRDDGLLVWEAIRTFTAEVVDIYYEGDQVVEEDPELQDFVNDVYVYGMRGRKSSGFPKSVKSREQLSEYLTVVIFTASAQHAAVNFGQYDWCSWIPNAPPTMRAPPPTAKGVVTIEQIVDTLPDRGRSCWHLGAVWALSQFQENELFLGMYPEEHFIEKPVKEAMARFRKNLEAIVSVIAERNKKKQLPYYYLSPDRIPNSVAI
Assay: Biosynthesis of 5‐LO products in stimulated HEK293 cells expressing 5‐LO and FLAP
Assay type: cell-based
Design: expressed in transfected cells; host or cells: HEK293 cells (ATCC), stably transfected
Settings: 1 μmol/L, 5 min preincubation; 10 μmol/L A23187 + 10 μmol/L arachidonic acid 15 min
Procedure: HEK293 cells were obtained from ATCC (Manassas) and were cultured in Dulbecco’s Modified Eagle Medium (DMEM) supplemented with 10% fetal bovine serum. Cells were stably transfected with 5‐lipoxygenase and 5‐lipoxygenase activating protein (FLAP) as previously described.31
Transfected HEK293 cells were collected and resuspended in Hank's balanced salt solution (HBSS, Lonza) containing 1.6 mmol/L CaCl2 at a concentration of 5 × 10^5 cells/mL, and were preincubated with each compound at concentration of 1 µmol/L for 5 minutes at 37°C. Cells were then stimulated for 15 minutes at 37°C with the addition of 10 µmol/L calcium ionophore A23187 (Sigma‐Aldrich) and 10 µmol/L arachidonic acid (Cayman Chemical).28 Stimulations were stopped by adding 0.5 volume of cold CH3OH:CH3CN (1:1) containing 100 ng/mL of prostaglandin B2 (PGB2) as internal standard. Samples were stored at −20°C and analyzed for 5‐LO products using reversed‐phase high‐performance liquid chromatography (RP‐HPLC) as described previously.32
Figure 2 The structures of the tested compounds (A) and their effects on the biosynthesis of 5‐LO products in transfected HEK293 cells (B). HEK293 cells expressing 5‐LO and FLAP were incubated in presence of the indicated compounds (1 μmol/L) or their diluent (Control, 0.1% DMSO) for 5 minutes, followed by the addition of 10 μmol/L calcium ionophore A23187 and 10 μmol/L arachidonic acid for 15 minutes. Reactions were then stopped, and samples were processed for analysis of 5‐LO products using RP‐HPLC. Total 5‐LO products measured represent the sum of LTB4, its trans isomers and 5‐hydroxyeicosatetraenoic acid. Data are expressed as means ± SEM of at least three independent experiments. *Difference from control as determined using one‐way ANOVA with Dunnett's multiple comparison test (P < .05)

Inhibition of biosynthesis of 5‐LO products in transfected HEK293 cells: very good inhibitory activity
Structure (SMILES): O=C(/C=C/c1cc(O)ccc1O)OCCc1ccccc1 [compound 5]
